This is an account of results in patent US20130190370A1, “Novel Tetrahydronaphalene Antagonists to the Thromboxane A2 (TP) Receptor” (The Trustees of the University of Pennsylvania, priority 2010, published 2013).

Like-named read-outs stand apart in the source and are kept apart here.

In one series the test system is Tg2576 mice. The note with it: cited from earlier work.
Series [1] can be described thus: Unbound fractions in plasma and brain homogenates by equilibrium dialysis. Type of series: in vitro ADME. The note with it: for fraction unbound: equilibrium dialysis. From the text:
Without wishing to be bound by any particular theory, it is believed that it is possible (although uncommon) for a BBB-permeable compound to have a very low B/P ratio if the fraction of free, unbound drug is much greater in the […]. More specifically, a drug that is freely diffusible across the BBB will at equilibrium have a free drug B/P ratio (B/Pfree)=1, where B/Pfree=B/P×fu(brain))/fu(plasma) (Maurer, et al., 2005, Drug Metab Dispos. 33:175-181; Kalvasset al., 2007, Drug Metab Dispos. 35:660-666) and fti represents unbound drug fractions. […] To ensure that the low B/P ratios obtained with the TP antagonists of Table 1 were truly reflective of poor BBB permeability, the unbound fractions in plasma and brain homogenates were measured using established equilibrium dialysis methods (Maurer, et al., 2005, Drug Metab Dispos. 33:175-181; Kalvasset al., 2007, Drug Metab Dispos. 35:660-666; Friden, et al., 2007, Drug Metab Dispos. 35:1711-1719). […] This is further illustrated by comparing the calculated B/Pfree ratios (Table 1), which are <<1. Because the existing repertoire of TP receptor antagonists share common structural features, including free carboxylate moieties, it is highly unlikely that any of these existing compounds would be sufficiently brain-penetrant to be potential AD therapeutics.
A general note: In equilibrium dialysis only unbound substance equilibrates across the membrane.

Another series in a line: in vivo. The note with it: female, B6C3HF1, mouse, in vivo, ip, 5 mg/kg. On the procedure:
One-month old B6C3HF1 female mice were given intraperitoneal injections of compounds at 5 mg/kg. 1 hour after injection, mice were lethally anesthetized with an intraperitoneal injection of ketamine hydrochloride (1 mg/10 g) and xylazine (0.1 mg/10 g) and perfused intracardially with PBS in accordance with protocols approved by the University of Pennsylvania.
Brain samples were homogenized in 10 mM ammonium acetate, pH 5.7 (1:2; w/v) using a handheld sonic homogenizer. Compound from 50 μL of brain homogenate or plasma was extracted with 200 μL acetonitrile, centrifuged, and the supernatant removed for LC/MS/MS analysis. Compounds were detected using multiple reaction monitoring (MRM) of their specific collision-induced ion transitions and quantified using peak areas.
The LC/MS/MS system was comprised of an Agility UPLC, a TQ MS, and controlled using MassLynx software (Waters Corporation, Milford, Mass., USA). Samples were separated on an Aquity BEH C18 column (1.7 μm, 2.1×50 mm) at 35° C. For operation in positive electrospray ionization mode, the mobile phase A was 0.1% (v/v) formic acid, and B was either acetonitrile or methanol with 0.1% (v/v) formic acid. For operation in negative electrospray ionization mode, the mobile phase A was 10 mM ammonium acetate, and B was methanol with 10 mM ammonium acetate, Injections of 5 μL were separated at a flow rate of 0.6 mL/min using a gradient from 5% to 95% B over two minutes followed by wash and re-equilibration steps.
The MS was operated with a desolvation temperature of 450° C. and a source temperature of 150° C. Desolvation and source nitrogen gas flows were 900 L/hr and 50 L/hr, respectively. Collision cell argon gas flow was 0.1 mL/min. Source and analyzer voltages were optimized for each compound using the MassLynx auto tune utility. Compound standards at 1000 ng/mL in 50% acetonitrile were infused at 30 μL/min and combined with flow from the UPLC at 0.6 mL/min and 50% B.
Standard curves were generated from spiked brain homogenate and plasma prepared at 4, 40, 400 and 4000 ng/mL and extracted as above. Peak area was plotted versus concentration and a 1/x weighted linear regression curve was used to quantify the unknowns using the average peak area from triplicate injections,
The following experiments were designed to analyze TP receptor antagonists to determine their relative BBB penetration. The TP receptor antagonists were administered via i.p. injection at 5 mg/kg to normal mice, and brain and plasma compound concentrations were assessed by LC-MS/MS at 1 and 4 hours after dosing.
To examine the blood-brain barrier permeability of these compounds, one-month old B6C3F1 mice were injected at 5 mg/kg and sacrificed 1 hour after injection.

Where [2] appears, read: B/Pfree (unbound drug brain-to-plasma ratio).

One may read the fraction unbound as the share of the substance not bound to proteins or other matrix. What is called Kp is tissue or fluid exposure divided by exposure in the circulation. Take `Cc1ccc2c(c1CCC(=O)O)CC[C@@H](NS(=O)(=O)c1ccc(Cl)cc1)C2` [Compound S18886]: in the series on Tg2576 mice (Tg2576 mice, drinking water), the Aβ levels entry is “reduced Aβ levels”. Further, the plaque load entry with Tg2576 mice (long-term treatment, relative to untreated mice) is listed as “significant diminution of plaque load”. In addition, the fraction unbound came to 0.044 in series [1] (brain homogenate, read-out: fu(brain) (fraction unbound)) and 0.026 in series [1] (plasma, read-out: fu(plasma) (fraction unbound)). In addition, the plasma/brain unbound fraction ratio in series [1] (plasma and brain homogenate, ratio of unbound fractions plasma/brain, read-out: fu(pl)/fu(br)) was found to be 0.59. The Kp at 1 h came out at 0.02 in the series “in vivo” (B/P (brain-to-plasma ratio)) and 0.04 in “in vivo” (setting [2]). The Kp at 4 h in “in vivo” (B/P (brain-to-plasma ratio)) worked out at 0.05; in “in vivo” (setting [2]) it was 0.08. For the same compound, the concentration at 1 h in “in vivo” (Brain) was determined as 42.4 ng/mL; in “in vivo” (Plasma), 1710 ng/mL. Further, the concentration at 4 h came out at 9 ng/mL in “in vivo” (Brain) and 190 ng/mL in “in vivo” (Plasma).
